What was measured:
HCT116 cells [1] = experiment: Caspase-3 activation (Caspase-Glo 3/7, immunoblotting of caspase-3 and PARP); type: cell-based, human; conditions: for caspase-3/7 activity and cleavage of caspase-3 and PARP: cells exposed to Dox (1 μM) alone or co-treated with tioconazole (40 μM)
Excerpt: The cell lysates were used for immunoblotting with antibodies against the primary antibodies against ATG4B (A2981), LC3 (L7543), and ACTB (β-actin, A5441) (all purchased from Sigma-Aldrich). […] The membrane was scanned and analyzed for the protein expression level with the ChemiDoc XRS Imaging System (Bio-Rad).

HCT116 cells [2] = experiment: FACS cell cycle distribution, subG1 population; conditions: Dox 1 μM, 24 h
ATG4B [3] = target: T1, ATG4B (Homo sapiens, UniProt Q9Y4P1); experiment: LC3-PLA2 biochemical ATG4 reporter assay; conditions: FIG. 2 and 4
T1 sequence (Q9Y4P1 1-393): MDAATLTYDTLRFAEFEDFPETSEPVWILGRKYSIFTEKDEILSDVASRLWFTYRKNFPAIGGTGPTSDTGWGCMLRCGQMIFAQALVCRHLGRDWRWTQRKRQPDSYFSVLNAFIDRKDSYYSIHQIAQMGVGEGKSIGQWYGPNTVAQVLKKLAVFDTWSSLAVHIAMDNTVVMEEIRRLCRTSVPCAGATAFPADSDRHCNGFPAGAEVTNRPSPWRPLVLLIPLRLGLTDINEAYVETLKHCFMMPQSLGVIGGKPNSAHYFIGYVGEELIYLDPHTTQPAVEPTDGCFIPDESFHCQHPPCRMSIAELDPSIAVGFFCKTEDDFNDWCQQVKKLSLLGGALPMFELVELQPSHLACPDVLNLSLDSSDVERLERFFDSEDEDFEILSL
Excerpt: (§1) Quantitative results are shown in each panel (n=4). […] Bar: 100 μm.

HCT116 spheroids = conditions: 48 h
Protocol: The cells (4000 cells/well) were seeded into an ultra-low attachment, 96-well plate (Costar®, USA) and grown overnight to form spheroid cells. […] The spheroid cells were stained with Calcein AM (1 μM) and Ethidium homodimer-1 (EthD-1, 2 μM) (LIVE/DEAD® Viability/Cytotoxicity Kit, ThermoFisher Scientific) for 30 minutes. The live (green) and dead (red) spheroid cells were imaged via fluorescence microscopy and quantitated using a Fluoroskan Ascent FL reader (Thermo Fisher Scientific) with excitation at 485 nm and emissions at 530 nm and 645 nm for calcein AM and EthD-1, respectively.
(FIG. 44) HCT116 cells were cultured in an ultra-low attachment dish for 24 h to form spheres. […] Scale bar: 400 μm. (FIG. 45) The relative sphere volume was quantified using DMSO-treated cells as the normalized control. (FIG. 46) HCT116 sphere-forming cells treated as (A) were lysed to measure ATP levels and assess cell viability. […] The viable and dead spheres were imaged with a LIVE/DEAD staining kit. The knockdown efficiency of ATG genes was verified by immunoblotting (left panel) (FIG. 48) The red fluorescence of the spheres in FIG. 47 was quantitated with a reader to assess the dead cell population (n=6).

HCT116 cells [4] = conditions: Tc 40 μM, versus untreated cells
Protocol: HCT116 cells treated with T2 (40 μM), CQ (20 μM) for 8 h were rinsed with PBS once and fixed in 2% glutaraldehyde at room temperature for 30 min. The cells were harvested to postfix with 1% osmium tetroxide and stained with 2% uranyl acetate (Agar Scientific) at room temperature for 1 h. The cell pellets were embedded to obtain 80 nm sections with a diamond knife. The sections were stained with 2% uranyl acetate and 0.3% lead citrate (Agar Scientific) and imaged with a JEM1400 PLUS transmission electron microscope (JEOL).
The autophagy inhibitor CQ was used as a positive control. Bar: 20 μm. […] Representative autophagic vacuoles (AVs) are shown. Arrowhead: autophagosome. Bar: 200 nm. (FIG. 22) The numbers of AVs for each optical section (9 m^2) are quantified (n=8).

ATG4B [5] = target: T1, ATG4B; conditions: ATG4B 1 nM, 500 nM GABARAPL2-PLA2, 1 h, anti-Myc
Protocol: (§2) The fluorescence intensity was kinetically monitored for 1 h to determine the ATG4 activity at room temperature with excitation and emission wavelengths of 485 and 530 nm, respectively.
(§3) For cleavage of GABARAPL2-PLA2 and caspase-3 activation, reaction mixtures or cell lysates were immunoblotted with antibodies against Myc (Roche, 11667149001), caspase-3 (Cell Signaling, 9661), PARP (Cell Signaling, 9532) and GAPDH (Cell Signaling, 5174).
(§4) (FIG. 5) ATG4B (1 nM) or (FIG. 6) ATG4A (50 nM) was mixed with 10-fold serially diluted Tc and 500 nM GABARAPL2-PLA2 for 1 h. The cleavage of GABARAPL2-PLA2 was validated with immunoblotting using an anti-Myc antibody.

ATG4A [6] = target: T2, ATG4A (Homo sapiens, UniProt Q8WYN0); conditions: ATG4A 50 nM, 500 nM GABARAPL2-PLA2, 1 h, anti-Myc
Protocol: as §2, §3, §4

ATG4A [7] = target: T2, ATG4A; experiment: biochemical
Protocol: as §2, §3, §4

[8] = test system: H4, HCT116 or MDA-MB-231 cells
Protocol: The cells were briefly rinsed in PBS (Biological Industries, 02-023-1) and lysed with RIPA buffer (1% NP40 [MDBio, 101-9016-45-9], 50 mM Tris HCl, pH 7.5, 150 mM NaCl, 0.25% sodium deoxycholate [Sigma-Aldrich, D6750], 1% sodium dodecyl sulfate [SDS; Calbiochem, 428015], and protease inhibitor cocktail [Roche, 11873580001]). The cell lysates were used for immunoblotting with antibodies against the primary antibodies against ATG4B (A2981), LC3 (L7543), and ACTB (β-actin, A5441) (all purchased from Sigma-Aldrich). The differential accumulations of LC3 in cells with and without CQ were used to quantitate the autophagic flux (Mizushima et al., 2010). […] The proteins were probed with an HRP-labeled secondary antibody (Santa Cruz, sc-2004 or sc-2005) and detected with an ECL reagent. The membrane was scanned and analyzed for the protein expression level with the ChemiDoc XRS Imaging System (Bio-Rad).
The autophagy inhibitor CQ was used as a positive control. […] (FIG. 24) HCT16 cells were transfected with siRNA (5 nM) for 66 h and then treated with CQ (20 μM) for 2 h. Cells were harvested for immunoblotting using antibodies against LC3, ATG4B or ACTB, and autophagy flux was quantified in untreated cells and cells treated with CQ based on changes in LC3-II. […] (FIG. 26) The autophagic flux was quantified as described in FIG. 25.

ATG4B [9] = target: T1, ATG4B; experiment: biochemical
Protocol: as §2, §3, §4

[10] = test system: HCT116 and H4 cells expressing GFP-LC3 and RFP-Lamp1; conditions: Tc 6 h, confocal microscopy
Protocol: Human colorectal cancer HCT116 cells, glioblastoma H4 cells and breast cancer MDA-MB-231 from the ATCC were cultured in Dulbecco's modified Eagle's medium (DMEM) (Invitrogen, 12100-046) supplemented with 10% HyClone fetal bovine serum, penicillin (100 U/ml), and streptomycin (100 mg/ml). […] The treated cells were harvested to determine cell viability, apoptosis and immunoblotting.
The treated cells were fixed to observe the GFP-LC3 puncta via fluorescence microscopy.
(FIG. 23) HCT116 cells expressing GFP-LC3 and RFP-Lamp1 were treated with Tc for 6 h and fixed to observe colocalization of GFP-LC3 and RFP-Lamp1 with confocal microscopy. GFP-LC3 that had colocalized with or was surrounded by RFP-Lamp1 was identified as fusion between autophagosomes and lysosomes. The colocalization coefficients of images were quantified by the Ziess LSM 710 Software and are shown in the right panel. Bar: 20 m.

ATG4B and LC3 complex = ATG4B and LC3 complex (Homo sapiens, UniProt Q9Y4P1); conditions: HEK293T cells, flow cytometry
Protocol: The plasmids (1 μg/well) were transfected with lipofectamine 2000 transfection reagent (Life Technologies, 11668-027) into HEK293T cells in a 6-well plate for 24 h. The cells were imaged via fluorescence microscopy or harvested to quantify the fluorescence intensity via a flow cytometer (Becton Dickinson).
After overnight culture, the cells were fixed to observe Venus complementary under fluorescence microscopy (right panel). […] (FIG. 10) The transfected cells were treated with Tc for 8 h and fixed for flow cytometry to quantify Venus fluorescence using GFP as a counter assay.
The cells were fixed to determine Venus complementation with flow cytometry and quantitated with FlowJo. HEK 293T cells transfected with or without GFP expression vector were used as the blank and counter controls, respectively.

ATG4 = ATG4 (Homo sapiens, UniProt Q9Y4P1); conditions: HEK293T cells, FIG. 8
Protocol: For the ATG4 cleavable reporter assay in mammalian cells, the N-terminus (NLuc, residues 2-416) and C-terminus (CLuc, residues 398-550) of the luciferase gene were constructed in the expression vector pcDNA3.0. […] The luciferase activity was measured via One-Glo (Promega) according to the instruction manual. The non-cleavable mutant G120A was used to normalize the luminescent signal and determine the ATG4 activity.
Quantitative results are shown in each panel (n=4). […] (FIG. 7) The expression vector that encoded ATG4-cleavable luciferase was constructed with LC3 and a luciferase chimera gene, as shown in the schematic diagram (upper panel). HEK293T cells were transfected with scramble siRNA (siCtrl) or siRNA against ATG4B (siATG4B) for 48 h, followed by transfection with the ATG4 reporter vector for 24 h. The luciferase activity was measured with a luminescent reader (n=6), and the knockdown efficiency of ATG4B was determined using immunoblotting. […] The cleavage of LC3 and luciferase chimera protein by ATG4 in cells treated with Tc or untreated cells was verified via immunoblotting (upper panel).
Briefly, LC3 was constructed to split N-terminal and C-terminal luciferase in a mammalian expression vector, as indicated (FIG. 7).

[11] = test system: H4 cells that stably express GFP-LC3; conditions: tioconazole 8 h
Protocol: The treated cells were fixed to observe the GFP-LC3 puncta via fluorescence microscopy. For protein colocalization, the H4 stable cells previously described were transfected with 1 μg plasmids Cherry tagged ATG4B or Lamp1-RFP (Addgene, 1817) for 36 h using Lipofectamine 2000 (Invitrogen).
(FIG. 17) Human glioma H4 cells that stably express GFP-LC3 were transfected with 5 nM non-targeting siRNA (Ctrl) or siRNA against ATG4 family members (ATG4) for 48 h, and the knockdown efficiency of ATG4 was verified with real time PCR. (FIG. 18) The knockdowned cells were fixed for observation via fluorescence microscopy, and the number of GFP-LC3 puncta is quantified in the right panel. […] The autophagy inhibitor CQ was used as a positive control. […] Representative autophagic vacuoles (AVs) are shown. […] (FIG. 22) The numbers of AVs for each optical section (9 m^2) are quantified (n=8). (FIG. 23) HCT116 cells expressing GFP-LC3 and RFP-Lamp1 were treated with Tc for 6 h and fixed to observe colocalization of GFP-LC3 and RFP-Lamp1 with confocal microscopy. […] The colocalization coefficients of images were quantified by the Ziess LSM 710 Software and are shown in the right panel. […] Cells were harvested for immunoblotting using antibodies against LC3, ATG4B or ACTB, and autophagy flux was quantified in untreated cells and cells treated with CQ based on changes in LC3-II. […]

ATG4B [12] = target: T1, ATG4B; experiment: ATG4B reporter yeast cell-based assay; conditions: ATG4 reporter yeast cells, FIG. 2
Protocol: as §1
FIGS. 55-58 show the characterization of yeast based ATG4B reporter assay for hts. (FIG. 55) Two-fold serial titrated yeast that harbored the LC3 reporter with wild type ATG4B (WT) or catalytic mutant (C74A) expression vector and reporter vector were seeded into a 384-well plate for 24 or 48 h. The substrate of […] X-gal (80 μg/ml) was included in the SD medium for the colorimetric assay. (FIG. 56) Beta-Glo was added into each well as (A) at 24 or 48 h to optimize the yeast concentration for the luminescent substrate. (FIG. 57) Yeast that harbored the wild type (WT) ATG4B and catalytic mutant (C74A) were used to determine the ratio of signal (WT)/background (C74A) and compare the sensitivity between the colorimetric and luminescent substrates. (FIG. 58) […] of yeast reporter cells (1.5×10^4 cells/ml) as previously described were seeded into a 384-well white plate for 24 h. Ten μl of the luminescent substrate Beta-Glo was added to each well, and the luminescent signal was read to determine the ATG4B activity. The luminescent signal between the wild type (WT) ATG4B and catalytic mutant (C/A) was used to determine the assay robustness (Z′ factor: 0.78).

[13] = test system: H4, HCT116 and MDA-MB-231 cells; experiment: Cell viability assay (CellTiter-Glo, cellular impedance); type: cell-based, human
Protocol: Cells were seeded into a 384-well plate overnight and treated with various drugs for 24 h. CellTiter-Glo (Promega, Madison, Wis., USA) was subsequently added to the treated cells, and the luminescence was read using a Fluoroskan Ascent FL reader (Thermo Fisher Scientific). Alternatively, the cell viability was monitored with an impedance-based instrument system (iCELLigence, ACEA Biosciences) for live cells. Briefly, H4 cells, HCT116 cells and MDA-MB-23 cells (4×10^4 cells/well) were seeded into electronic plates (E-Plates L8, ACEA Biosciences) with 400 μl of DMEM that contained 10% FBS and incubated for 30 h. […] The cellular impedance was periodically measured every 15 minutes until 80 h.
The cell viability was accessed with CellTiter-Glo.

HCT116 and H4 cells = conditions: Dox-treated cells, Tc 40 μM, JC-1
Protocol: For the MMP analysis, the cells were treated with JC-1 (5,5,6,6-tetrachloro-1,1,3,3-tetraethyl-benzimidazolylcarbocyanine iodide, Invitrogen) at 37° C. for 20 min prior to harvesting.

[14] = tioconazole-treated mice, immunohistochemistry

T2 sequence (Q8WYN0 whole entry): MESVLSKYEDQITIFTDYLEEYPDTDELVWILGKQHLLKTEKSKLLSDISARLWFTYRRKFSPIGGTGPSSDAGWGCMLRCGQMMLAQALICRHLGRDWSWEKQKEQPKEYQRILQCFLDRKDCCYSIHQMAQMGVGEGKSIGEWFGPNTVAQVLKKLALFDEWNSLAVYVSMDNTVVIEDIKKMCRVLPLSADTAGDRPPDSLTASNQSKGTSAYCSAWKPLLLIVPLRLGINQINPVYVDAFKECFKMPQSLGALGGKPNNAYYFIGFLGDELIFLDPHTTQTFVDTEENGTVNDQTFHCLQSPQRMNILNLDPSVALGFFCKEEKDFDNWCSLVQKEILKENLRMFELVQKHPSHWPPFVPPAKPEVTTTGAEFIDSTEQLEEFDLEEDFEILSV
Protocol for HCT116 xenograft tumors: Human colorectal cancer HCT116 cells (2×10^6) were mixed with Matrigel (1:1) and subcutaneously implanted into six-week old immunodeficient mice (nu/nu, female). […] The tumor size in each mouse was measured every 3 to 4 days with vernier calipers, and the tumor volumes were calculated using the formula (larger diameter)×(smaller diameter)2×7π/6. Tumors were further cut from euthanized mice and embedded in paraffin. […] The protein levels in the tumor sections were determined using the UltraVision™ Quanto Detection System HRP DAB (Thermo Scientific) and observed under microscopy.
The tumor volume (circle) in each mouse was measured every 3 to 4 days (5 per group). The p values were determined with an ANOVA. […] The quantified results were obtained from at least 1500 cells and are shown in the right panel. p>0.05; *p<0.05; **p<0.01; ***p<0.001.

Compound: COc1cccc2c1C(=O)c1c(O)c3c(c(O)c1C2=O)C[C@@](O)(C(=O)CO)C[C@@H]3O[C@H]1C[C@H](N)[C@H](O)[C@H](C)O1 [Dox, Doxorubicin]
- caspase-3/7 activity and cleavage of caspase-3 and PARP (HCT116 cells [1]): significantly elevated

Compound: Clc1ccc(COC(Cn2ccnc2)c2ccc(Cl)cc2Cl)c(Cl)c1 (stereo not shown) [miconazole]
- cell death in combination with Dox (subG1 proportion) (HCT116 cells [2]): less potently synergized with Dox
- inhibitory effect on ATG4B compared with tioconazole (ATG4B [3]): failed to exhibit as good inhibitory effect on ATG4B as tioconazole

Compound: Clc1ccc(C(Cn2ccnc2)OCc2ccsc2Cl)c(Cl)c1 (stereo not shown) [tioconazole]
- xenograft tumor weight (HCT116 xenograft tumors; Tc 60 mg/kg intraperitoneal every other day, day 21): reduced the xenograft tumor weight
- sensitivity of xenograft tumors to Dox (HCT116 xenograft tumors; Tc 60 mg/kg with Dox 1 mg/kg intraperitoneal every other day): sensitized xenograft tumors to Dox
- levels of cleaved caspase-3 in tumor tissues (HCT116 xenograft tumors; [14]): significantly increased
- number of LC3 puncta in tumor tissues (HCT116 xenograft tumors; [14]): significantly increased
- size of tumor spheroids (HCT116 spheroids; HCT116 spheroids, Tc 40 μM): significantly decreased the size of tumor spheroids
- cytotoxicity of Dox in spheroids (ATP levels, number of dead cells) (HCT116 spheroids; Tc 40 μM with Dox 1 μM): enhanced the cytotoxicity of Dox
- Dox-induced cell death in spheres with scramble shRNA and shRNA against ATG4B (HCT116 spheroids; Tc 40 μM, Dox 1 μM, LIVE/DEAD staining): enhanced Dox-induced cell death
- number of autophagosomes (TEM) (HCT116 cells [4]): increased
- cleavage of GABARAPL2-PLA2 by ATG4B (immunoblotting) (ATG4B [5]): blocked the cleavage
- cell death in combination with Dox (subG1 proportion) (HCT116 cells [2]): synergistically increased cell death
- cleavage of GABARAPL2-PLA2 by ATG4A (immunoblotting) (ATG4A [6]): blocked the cleavage
- IC50 (ATG4A [7]): 1300 ± 180 nM
- autophagic flux (LC3-II accumulation with and without CQ) ([8]; Tc 6 h, with or without CQ 20 μM): significantly attenuated autophagic flux
- LC3-II turnover and SQSTM1 degradation triggered by starvation and chemotherapeutic drugs ([8]; cancer cells, starvation or CPT/Dox 24 h, immunoblotting): blocked LC3-II turnover and SQSTM1 degradation
- IC50 (ATG4B [9]): 1800 ± 160 nM
- co-localization of LC3 and LAMP1 [10]: decreased the co-localization of LC3 and LAMP1
- fluorescence from formation of the ATG4B and LC3 complex (BiFC) (ATG4B and LC3 complex; Tc 8 h): reduced the fluorescence
- GFP fluorescence (counter assay) (ATG4B and LC3 complex): did not affect GFP fluorescence
- luciferase activity in ATG4 reporter cells (ATG4): increased the luciferase activity
- cleavage of chimera luciferase in reporter cells (ATG4; immunoblotting): attenuated the cleavage of chimera luciferase
- GFP-LC3-II puncta [11]: accumulation of GFP-LC3-II puncta
- inhibition in the yeast cell-based assay (ATG4B [12]): strong inhibition
- caspase-3/7 activity and cleavage of caspase-3 and PARP (HCT116 cells [1]): significantly elevated
- cytotoxic effects of starvation and chemotherapy ([13]; cancer cell lines, tioconazole 40 μM combined with starvation or chemotherapeutic drugs): enhanced the cytotoxic effects of starvation and chemotherapy
- cell viability ([13]; cancer cell lines, tioconazole 40 μM, cellular ATP levels or impedance): significantly reduced the cell viability
- mitochondrial membrane potential (MMP) (HCT116 and H4 cells): reduction of mitochondrial membrane potential

Compound: z-VAD-fmk
- caspase-3 activation after pretreatment (HCT116 cells [1]; zVAD-FMK 50 μM, cells treated with tioconazole and Dox): blocked caspase-3 activation
- apoptotic effects of tioconazole and Dox after pretreatment (cell viability) ([13]; zVAD-FMK 50 μM pretreatment, Tc 40 μM, Dox 1 μM 24 h): rescued the apoptotic effects

— US10583123B2, “Method for the treatment of ATG4-related disorders” (National Tsing Hua University, priority 2017, dated 2020)
